# Reference: ChEMBL document CHEMBL1126472, “Multipurpose receptor ligands: -carboline cholecystokinin antagonists” (Bioorg Med Chem Lett, 1993)
# Assays:
# [1] = Tested for its activity to inhibit the binding of [125I]gastrin to gastric glands (gastrin) in guinea pig
# [2] = Tested for its activity to inhibit the binding of [125I]CCK-33 to Cholecystokinin type B receptor in guinea pig brain
# [3] = target: T1, Cholecystokinin receptor type A (Rattus norvegicus, UniProt P30551); assay: Tested for its activity to inhibit the binding of [125I]CCK-33 to Cholecystokinin type A receptor in rat pancreas
# T1 sequence (P30551 whole entry): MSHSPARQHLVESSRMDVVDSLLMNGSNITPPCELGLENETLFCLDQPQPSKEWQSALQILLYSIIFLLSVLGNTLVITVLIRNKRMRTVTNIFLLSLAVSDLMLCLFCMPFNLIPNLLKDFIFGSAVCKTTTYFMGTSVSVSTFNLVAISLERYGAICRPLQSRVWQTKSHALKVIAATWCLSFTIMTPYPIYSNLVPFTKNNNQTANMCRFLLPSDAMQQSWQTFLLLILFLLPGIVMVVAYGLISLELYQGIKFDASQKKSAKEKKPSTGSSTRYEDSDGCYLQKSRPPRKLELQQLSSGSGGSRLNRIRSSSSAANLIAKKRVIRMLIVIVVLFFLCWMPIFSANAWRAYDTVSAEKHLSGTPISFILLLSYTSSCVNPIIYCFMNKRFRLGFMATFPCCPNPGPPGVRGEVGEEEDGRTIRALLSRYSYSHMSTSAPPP
IC50 [3],Compound,IC50 [1],IC50 [2]
,CN1C(=O)[C@H](NC(=O)Nc2ccc(Cl)cc2)N=C(c2ccccc2)c2ccccc21,12 nM,5.5 nM
330 nM,O=C(CCc1ccccc1)Nc1cc2c3ccccc3nc-2c[nH]1,,
710 nM,Cn1c(C(=O)Nc2cc3c4ccccc4nc-3c[nH]2)cc2ccccc21,,
85 nM,O=C(Nc1ccc(Cl)cc1)Nc1cc2c3ccccc3nc-2c[nH]1,,
40 nM,O=C(Cc1ccccc1)Nc1cc2c3ccccc3nc-2c[nH]1,,
7100 nM,O=C(Nc1cc2c3ccccc3nc-2c[nH]1)c1ccccc1,,
> 100000 nM,Nc1cc2c(cn1)[nH]c1ccccc12,,
3500 nM,O=C(Nc1cc2c3ccccc3nc-2c[nH]1)c1ccc(Cl)cc1,,
24 nM,O=C(Cc1c[nH]c2ccccc12)Nc1cc2c3ccccc3nc-2c[nH]1,,
,CN1C(=O)[C@@H](NC(=O)Nc2ccc(Cl)cc2)N=C(c2ccccc2)c2ccccc21,540 nM,410 nM

Compound,IC50 [3],IC50 [1],IC50 [2]
CN1C(=O)[C@@H](NC(=O)Nc2cc3c4ccccc4nc-3c[nH]2)N=C(c2ccccc2)c2ccccc21,110 nM,,
CN1C(=O)C(NC(=O)Cc2c[nH]c3ccccc23)N=C(c2ccccc2)c2ccccc21 (stereo unspecified),1000 nM,,
CN1C(=O)[C@H](NC(=O)Nc2cc3c4ccccc4nc-3c[nH]2)N=C(c2ccccc2)c2ccccc21,89 nM,,
COC(=O)c1cc2c(cn1)[nH]c1ccccc12 [BETA-CCM],> 100000 nM,,
